Like-named read-outs stand apart in the source and are kept apart here. Where only a bound is given, the exact number is not on record here.

One test has as its system HCT116 MTAP WT cells. Description: Proliferation inhibition of HCT116 cells in vitro (CellTiter Glo). The class given is cell-based. The settings on record: 6 days, 9 concentrations starting from 30 μM, read-out: Cell proliferation inhibition rate HCT116 MTAP WT IC50 (nm). An excerpt: (§1) Biological Test Example 2 Proliferation Inhibition of HCT116 and HCT116 MTAP-KO Cells in Vitro
(§2) HCT116 cell line was purchased from the Chinese Academy of Sciences Cell Bank, and the MTAP gene was knocked out by CRISPR/Cas9 technology to obtain HCT116-MTAP-KO cell line.
(§3) McCoy's 5A medium (Gibco, catalog No. 16600082), fetal bovine serum (Gibco, catalog No. 10099141C), penicillin-streptomycin double antibody (Gibco, catalog No. 15140122), pancreatic enzyme (Gibco, catalog No. 25200056), CellTiter Glo assay kit (Promega, catalog No. G7572), 384-well transparent flat-bottomed black walled cell culture plate (Corning, catalog No. 3764), ultra micro sampler (Tecan, catalog No.D300e), Multimode reader (Biotek, catalog No. SynergyHTX)
(§4) 1. Cell culture: HCT116 and HCT116-MTAP-KO cells were cultured in McCoy'5A medium+10% fetal bovine serum+1% penicillin-streptomycin double antibody; to ensure that they were always in the logarithmic growth phase and the cell viability greater than 95%.
(§5) 2. Compound concentration gradient preparation: The compound to be tested was added to a 384-well plate using an ultra micro sampler, starting from 30 μM (HCT116 cells) or 3 μM (HCT116-MTAP-KO cells), and diluted with DMSO at 3 times for a total of 9 concentrations and set up three duplicate wells.
(§6) 3. Treatment of cells with compounds: Trypsin-digested HCT116 or HCT116-MTAP-KO cell suspension was added to the 384-well plates spotted with the compounds to be tested at 40 μL per well, i.e., 100 cells per well, and the final concentration of DMSO was 0.4%. The cell culture plate was incubated at 37° C. in a 5% CO2 incubator for 6 days.
(§7) 4. Detection: 20 μL of CellTiter Glo reagent was added to each well of the cell culture plate and incubated at room temperature for 30 minutes. A multimode reader was used to detect the luminescence signal at […].
(§8) The data was fitted with GraphPad Prism 8.0 software using a four parameter inhibitor-reaction model to obtain the IC50 value (half inhibitory concentration) of the test compounds.
A general note: In ATP-based viability assays light output follows the ATP content of the culture.

In test [1] the test system is HCT116-MTAP-KO cells (HCT116 MTAP null). Briefly: Proliferation inhibition of HCT116 MTAP-KO cells in vitro (CellTiter Glo). The test is classed as cell-based. The note with it: 6 days, 9 concentrations starting from 3 μM, read-out: Cell proliferation inhibition rate HCT116 MTAP null IC50 (nm).
Source text: as §1, §2, §3, §4, §5, §6, §7, §8

For the compound `COc1ncc(N(Cc2ccc(C(F)(F)F)cn2)C(=O)c2cc3c(cc2F)nc(N)c2cnc(C)n23)cn1` [Example 148], the IC50 in the test on HCT116 MTAP WT cells (Homo sapiens, HCT-116, 144 h) lay within 1000 to 10000 nM; in test [1] (HCT116-MTAP null, 144 h), 100 to 1000 nM.
With `Cc1ncc2c(N)nc3cc(F)c(C(=O)N(Cc4ccc(C(F)(F)F)cn4)C4CCOCC4)cc3n12` [Example 149], the IC50 lay within 1000 to 10000 nM with HCT116 MTAP WT cells (Homo sapiens, HCT-116, 144 h) and 100 to 1000 nM in test [1] (HCT116-MTAP null, 144 h).
On the same counts, the results for `CCn1cc(N(Cc2ccc(C(F)(F)F)cn2)C(=O)c2cc3c(cc2F)nc(N)c2c(C)ncn23)c(C)n1` [Example 150] are 100 to 1000 nM and under 100 nM.
The like results for `Cc1[nH]ncc1N(Cc1ccc(C(F)(F)F)cn1)C(=O)c1cc2c(cc1F)nc(N)c1cnc(C)n12` [Example 151] were, in that order, 1000 to 10000 nM and 100 to 1000 nM.
The like results for `COCCOc1ccc(CN(C(=O)c2cc3c(cc2F)nc(N)c2cnc(C)n23)c2cn(C)nc2C)nc1` [Example 152] were, in that order, 1000 to 10000 nM and 100 to 1000 nM.
`Cc1ncn2c1c(N)nc1cc(F)c(C(=O)N3[C@H](C)COC[C@@H]3c3ccc(C(F)(F)F)cn3)cc12` [Example 153]: the IC50 in the test on HCT116 MTAP WT cells (Homo sapiens, HCT-116, 144 h) was 100 to 1000 nM; in test [1] (HCT116-MTAP null, 144 h), under 100 nM.
As to `Cc1ncn2c1c(N)nc1cc(F)c(C(=O)N3C(C)COCC3c3ccc(C(F)(F)F)cn3)cc12` (stereo not drawn) [Example 155], the IC50 in the test with HCT116 MTAP WT cells is 1000 to 10000 nM; in test [1], under 100 nM.
For `Cc1ncc2c(N)nc3cc(F)c(C(=O)N(Cc4ccc(C(F)(F)F)cn4)C4CCOC4)cc3n12` (stereo not drawn) [Example 156], the IC50 in the test on HCT116 MTAP WT cells (Homo sapiens, HCT-116, 144 h) lay in the range of 1000 to 10000 nM; in test [1] (HCT116-MTAP null, 144 h) it was 100 to 1000 nM.
For the compound `Cc1nn(C)cc1N(Cc1ccc(OC(F)(F)F)cn1)C(=O)c1cc2c(cc1F)nc(N)c1cnc(C)n12` [Example 157], the IC50 with HCT116 MTAP WT cells (Homo sapiens, HCT-116, 144 h) is 1000 to 10000 nM; in test [1] (HCT116-MTAP null, 144 h), under 100 nM.
On the same counts, the results for `Cc1ncc2c(N)nc3cc(F)c(C(=O)N(Cc4ccc(C(F)(F)F)cn4)C4COC4)cc3n12` [Example 158] are 1000 to 10000 nM and 100 to 1000 nM.
On the same counts, the results for `Cc1ncc2c(N)nc3cc(F)c(C(=O)N4CCC(c5ccc(C(F)(F)F)cn5)C4)cc3n12` (stereo not drawn) [Example 159] are 1000 to 10000 nM and 100 to 1000 nM.
With `Cc1nn(C)cc1N(Cc1ccc(OC2CC2)cn1)C(=O)c1cc2c(cc1F)nc(N)c1c(C)ncn12` [Example 161], the IC50 in the test on HCT116 MTAP WT cells (Homo sapiens, HCT-116, 144 h) was under 100 nM; in test [1] (HCT116-MTAP null, 144 h), under 100 nM.
Regarding `Cc1nn(CCO)cc1N(Cc1ccc(C(F)(F)F)cn1)C(=O)c1cc2c(cc1F)nc(N)c1c(C)ncn12` [Example 165], the IC50 in the test on HCT116 MTAP WT cells (Homo sapiens, HCT-116, 144 h) is 1000 to 10000 nM; in test [1] (HCT116-MTAP null, 144 h), under 100 nM.
The like results for `CCOc1ccc(CN(C(=O)c2cc3c(cc2F)nc(N)c2c(C)ncn23)c2cn(C)nc2C)nc1` [Example 168] were, in that order, under 100 nM and under 100 nM.
For `CCc1nn(C)cc1N(Cc1ccc(C(F)(F)F)cn1)C(=O)c1cc2c(cc1F)nc(N)c1cnc(C)n12` [Example 169], the figures for the IC50 (in the test on HCT116 MTAP WT cells; in test [1]) were 100 to 1000 nM and under 100 nM, respectively.
On to `Cc1nn(C)cc1N(Cc1ccc(OC(F)(F)F)cn1)C(=O)c1cc2c(cc1F)nc(N)c1c(C)ncn12` [Example 170], for which the IC50 is under 100 nM with HCT116 MTAP WT cells (Homo sapiens, HCT-116, 144 h) and under 100 nM in test [1] (HCT116-MTAP null, 144 h).
For the compound `CCn1cc(N(Cc2ccc(OC3CC3)cn2)C(=O)c2cc3c(cc2F)nc(N)c2cnc(C)n23)c(C)n1` [Example 171], the IC50 was 1000 to 10000 nM with HCT116 MTAP WT cells (Homo sapiens, HCT-116, 144 h) and under 100 nM in test [1] (HCT116-MTAP null, 144 h).
On the same counts, the results for `Cc1nn(CC(F)F)cc1N(Cc1ccc(C(F)(F)F)cn1)C(=O)c1cc2c(cc1F)nc(N)c1cnc(C)n12` [Example 173] are 1000 to 10000 nM and under 100 nM.
Turning to `Cc1ncc2c(N)nc3cc(F)c(C(=O)N(Cc4ccc(C(F)(F)F)cn4)c4cn(C)nc4Cl)cc3n12` [Example 175], the IC50 in the test on HCT116 MTAP WT cells (Homo sapiens, HCT-116, 144 h) was 1000 to 10000 nM; in test [1] (HCT116-MTAP null, 144 h), under 100 nM.
On the same counts, the results for `Cc1nn(C(C)C)cc1N(Cc1ccc(C(F)(F)F)cn1)C(=O)c1cc2c(cc1F)nc(N)c1cnc(C)n12` [Example 176] are 1000 to 10000 nM and under 100 nM.
Turning to `CCn1cc(N(Cc2ccc(OC3CC3)cn2)C(=O)c2cc3c(cc2F)nc(N)c2c(C)ncn23)c(C)n1` [Example 177], the IC50 in the test with HCT116 MTAP WT cells (Homo sapiens, HCT-116, 144 h) is 100 to 1000 nM; in test [1] (HCT116-MTAP null, 144 h) it was under 100 nM.

For the origin of these results see US20250376473A1, “PRMTS INHIBITOR AND USE THEREOF” (Cytosinlab Therapeutics Co., Ltd., priority 2022, published 2025).
